In patent US20190030018A1 (Celgene Corporation, priority 2017, published 2019):
≈ marks a conversion by molar mass, not a printed value. Read-outs that look alike come from different tables or passages of the source.

What was measured:
physchem [1] = type: physicochemical
Text: “Compound 1, Form C” or “Form C” or “API”” in the Examples herein refers to polymorph Form C of 2-(4-chlorophenyl)-N-((2-(2,6-dioxopiperidin-3-yl)-1-oxoisoindolin-5-yl)methyl)-2,2-difluoroacetamide. “Compound 1, Form A” or “Form A” in the Examples herein refers to polymorph Form A of 2-(4-chlorophenyl)-N-((2-(2,6-dioxopiperidin-3-yl)-1-oxoisoindolin-5-yl)methyl)-2,2-difluoroacetamide.

physchem [2] = type: physicochemical; settings: organic solvent or mixture, thermodynamic from solid, drug solubility in formic acid
Description: A solvent screen was conducted to identify suitable Class 3 solvents listed in the ICH (International Conference on Harmonisation) Q3C Guidance as the Class 3 solvents have a higher permitted daily exposure (PDE) level of 50 mg/day. A good solvent candidate was considered to have 1) good miscibility with water and 2) sufficiently low boiling point so that it can be easily removed during the lyophilization process.

physchem [3] = type: physicochemical; settings: 25 °C, aqueous with cosolvent or surfactant or cyclodextrin, thermodynamic from solid, Solubility at 25° C. (mg/mL)
Description: Two studies were performed to evaluate the supersaturation risks of Kleptose based formulations. […] The second study is intended to evaluate the kinetics of drug precipitation in Formulation Ib.
In this experiment, ten solutions were prepared by dissolving Kleptose and formic acid in WFI. The Kleptose concentration in all the ten solutions varied from 30 mg/mL to 250 mg/mL, while the formic acid concentration was kept constant at 1.65 mg/mL as used in the bulk solution of formulation Ib. […] Then the sample of each solution was taken and centrifuged for assay testing.

BON cells = test: Signaling and proliferation of BON cells, CellTiter-Glo assay (2D and 3D plates); type: cell-based; settings: BON1, single agent
[4] = system: primary human tumor xenograft model GA0087; test: HuPrime gastric cancer xenograft GA0087 model, in vivo efficacy; set-up: species or system female BALB/c nude mice; settings: single agent
Text: Tumor fragments from stock mice were harvested and used for inoculation into mice. Each mouse was inoculated subcutaneously at the right flank with primary human tumor xenograft model GA0087 tumor fragment (P7, 2-3 mm in diameter) for tumor development. […] After tumor inoculation, the animals were checked daily for morbidity and mortality. At the time of routine monitoring, the animals were checked for any effects of tumor growth and treatments on normal behavior such as mobility, food and water consumption, body weight gain/loss, eye/hair matting and any other abnormal effect. Death of euthanized mouse was recorded. All groups were terminated on Day 40. Three tumors in each group, with tumor volume near median of each group were collected. Plasma of the same mice were collected. For comparison among three or more groups, one-way ANOVA was performed followed by multiple comparison procedures. All data were analyzed using SPSS 18.0. P values <0.05 is considered to be statistically significant.

[5] = system: BaF3 cells expressing hCRBN, hCRBN and JAK2 wt, or hCRBN and JAK2-V617F; test: Combination studies with JAK2 inhibitors in engineered BaF3 cells, CellTitre-Glo after 3 days; type: cell-based; settings: IL3 dependent BaF3 lines
Description: (§1) Everolimus was included as a control. The cell viability was then measured by CellTitre-Glo® after 3 days.

[6] = system: IL3 independent JAK2 V617F BaF3 cells; test: as above; type: cell-based; settings: compared to the IL3 dependent lines
Description: as §1

[7] = system: IDH2 mutant cell line TF1-R140Q; test: Proliferation (total, HSC and progenitor cell count) in the TF1 assay; type: cell-based
Description: Cells were plated at a density of 0.2e^6 cells/ml of 2 ml culture in 6 well plates.
TF1 cells were cultured in the following media: RPMI containing HEPES and L-glutamine, 10% FBS, Pen/Strep, G418 (final conc 500 μg/ml), and GM-CSF (final conc 5 ng/ml). The cells were cultured for 7 days, with or without compound treatment as described in FIG. 91.
For the hemoglobinization assay, TF1 cells were washed three times with PBS to remove residual GM-CSF then plated at (100,000 cells/ml). Cells were then induced to differentiate using EPO (2 unit/ml). Induction continued for 7 days with changing media on 4th day and adding media with fresh EPO. The cell pellets were collected and imaged for hemoglobinization content (as a surrogate for differentiation into blood lineage). Cells were pelleted, washed, stained with a panel of antibodies and analyzed by flow cytometry, using the following antibodies: […]

[8] = system: GSPT1 expression, mTOR activation, Mcl-1 expression and Caspase-3 cleavage in AML cells; test: Immunoblot analysis of AML cells treated with Compound 1 and everolimus; type: cell-based; settings: AML cell lines HNT-34 and KG1, Compound 1 alone
Text: Whole cell extracts were collected and subjected to immunoblot analysis.

BMMCs from MDS patients = test: Ex vivo liquid culture of BMMCs from MDS patients, Compound 1 with everolimus (viable cell count); type: cell-based, human
Description: Cultures were maintained for 1 week and cell numbers were measured by viable cell count on days 1, 3 and 7 of culture.

[9] = system: caspase-3 activation and GSPT1 degradation in BMMCs from a MDS patient; test: Apoptosis and GSPT1 degradation by flow cytometry 24 hours after exposure; type: cell-based, human; settings: 24 hours exposure
[10] = system: human QGP1 pancreatic somatostatinoma xenografts; settings: mouse, in vivo
Description: Treatment began on Day 1 in nine groups of mice (n=10) with established subcutaneous QGP1 tumors. […] Tumors were measured using calipers twice each week to the end of the study on Day 52. Three tumors at or near the group median tumor volume 2000 mm^3 endpoint were sampled from each group.
Treatment efficacy was based on tumor growth inhibition (TGI), defined as the difference between the final (Day 52) median tumor volumes (MTVs) of treated and control mice. The results were analyzed utilizing the Mann-Whitney U-test, and were deemed statistically significant at P≤0.05. Drug tolerability was assessed by body weight measurements and by frequent observation of treated animals.

physchem [11] = settings: aqueous with cosolvent or surfactant or cyclodextrin
Description: In the first precipitation study, four solution formulations were prepared at a Kleptose concentration of 100 mg/mL. […] Then the solutions were stored in three conditions: (1) at ambient condition with mild mixing; (2) at ambient condition without mixing; (3) at 2-8° C. without mixing.
The corresponding drug concentration of each formulation was 300, 400, and 500 μg/mL so that the supersaturation ratio was about 5× for all the three formulations. […] In the study, the same experiments were repeated twice to evaluate the reproducibility of the results.

[12] = GA0087 PDX model ex vivo 3D methylcellulose CellTiter-Glo cell viability assay (IC50, matrix combination, Combination Index)
Description: (§2) Materials and Methods: The stomach cancer cell line GA0087 was used in this study. […] Culture media was purchased from GIBCO or Sigma, USA.
(§3) Everolimus was obtained from Selleck. Cisplatin was used as a reference drug, and was obtained from Hospira Australia pty Ltd.
(§4) PDX tumor models were maintained at Crownbio HuPrime animal facility. Tumor growth was monitored weekly. Tumor volumes were measured in two dimensions using a caliper, and the volume was expressed in mm^3 using the formula: V=0.5 a×b^2 where a and b are the long and short diameters of the tumor, respectively. • 2. Mouse xenografts at tumor volume around 800 mm^3 were housed with sterile surgical tools and tumor tissue was minced into tiny pieces with scissors in small amount of PBS on a new tissue culture plate. • 3. The cell suspension was filtered through Falcon cell strainer. The nylon mesh was washed 3-5 times with PBS. • 4. The cell suspension was centrifuged at 1000 rpm for 5 minutes and the pellet was washed with PBS and centrifuged again. • 5. Red blood cells were removed using red blood cell lysis buffer. • 6. The cell suspension was centrifuged at 1000 rpm for 5 minutes and the pellet was washed with PBS and centrifuged again. • 7. The cell pallet was re-suspended with appropriate cell culture media for different cells. • 8. Cells were counted with Countstar by trypan blue exclusion.
(§5) Day −1: Cell Plating • 1. The cells were harvested during the logarithmic growth period. The harvested cells were cultured with appropriate cell media and centrifuged at 1000 rpm for 3 minutes. […] (Cell concentration was adjusted according to the data base or density optimization assay). • 3. 3.5 mL of cell suspension was mixed with 6.5 mL of 1% methylcellulose. […] 90 μL cell suspensions were added to 96-well plates according to plate map with final cell density. Two duplicate plates were set up: one for day 0 reading (T0) and the other was cultured in incubator for reading at the end point.
(§6) Day 0: T0 Plate Reading and Compound Treatment • 5.10 μL culture medium was added to T0 plate in each well for T0 reading. • 6.100 μl CellTiter-Glo® Reagent was added to each well. • 7. The contents were mixed for 2 minutes on an orbital shaker to facilitate cell lysis. • 8. The plates were allowed to incubate at room temperature for 10 minutes to stabilize luminescent signal. • 9. A backseal black sticker was placed to the bottom of each plate. • 10. The luminescence was read using EnVision Multi Label Reader. • 11.
(§7) The solutions were stored at −20° C. […] The response score was calculated by normalizing to DMSO control. The combination index (CI) was calculated using Chou and Talalay method, wherein a CI of less than 1 indicates synergy. Cisplatin was used as control in the single compound dose response, but was not included in the combination test.
(§8) After drug incubation, pictures for representative wells were taken using a phase contrast microscope. • 13. 100 μL CellTiter-Glo® Reagent was added to each well. • 14. Contents were mixed for 2 minutes on an orbital shaker to facilitate cell lysis. • 15. The plates were allowed to incubate at room temperature for 10 minutes to stabilize luminescent signal. • 16. Backseal black sticker was placed to the bottom of each plate. • 17. Luminescence was recorded using EnVision Multi Label Reader.
(§9) In order to calculate IC50, a dose-response curve was fitted using nonlinear regression model with a sigmoidal dose response. The formula of surviving rate is shown below, and the IC50 was automatically produced by GraphPad Prism 5.0.
(§10) The surviving rate (%)=(LumTest article−LumMedium control)/(LumNone treated−LumMedium control)×100%.

[13] = system: stomach cancer cell line GA0087; test: as above
Description: as §2, §3, §4, §5, §6, §7, §8, §9, §10

In the case of `O=C1CCC(N2Cc3cc(CNC(=O)C(F)(F)c4ccc(Cl)cc4)ccc3C2=O)C(=O)N1` (stereo not drawn) [Compound 1, 2-(4-chlorophenyl)-N-((2-(2,6-dioxopiperidin-3-yl)-1-oxoisoindolin-5-yl)methyl)-2,2-difluoroacetamide], the Hygroscopicity (physchem [1]) is reported as “Not hygroscopic”, the “Solid State Stability” value (physchem [1]) is reported as “DS is physically stable under all storage conditions” and the “chemical stability in solution” value (physchem [1]; pH 5) is reported as “chemically instable in solution above pH 5”. It also gave a solubility (physchem [1]; water) of at most 1 µg/mL, a solubility (physchem [2]) of about 170 mg/mL (≈ 368000 µM) and a solubility at 72 h (physchem [3]) of 86 µg/mL (≈ 186 µM). For the same compound, the “standalone activity on proliferation” value (BON cells) was “no standalone activity”, the “tumor growth inhibition (mean tumor volume)” value [4] was “showed tumor growth inhibition” and the anti-tumor activity ([4]; 1.25 mg/kg and 2.5 mg/kg) was “moderate anti-tumor activity”. The anti-tumor activity ([4]; 5 mg/kg) was “prominent anti-tumor activity”, the “difference in single agent effect on cell viability between cell lines” value [5] was “no difference” and the single agent sensitivity [6] was “more sensitive”. For the same compound, the “proliferation (total, HSC and progenitor cell count)” value [7] was “inhibition of proliferation”, the “GSPT1 degradation, Caspase-3 cleavage and Mcl-1 loss” value [8] was “sufficient to induce robust GSPT1 degradation, Caspase-3 cleavage, and Mcl-1 loss” and the “effect of single agent” value (BMMCs from MDS patients; 37 nM) was “No effect”. For the same compound, the “reduction of cell numbers” value (BMMCs from MDS patients; 37 nM, after 3 days of culture) was about 70%, the cell number decrease (BMMCs from MDS patients; higher concentrations) was “up to 95%” and the “Caspase 3 activation” value [9] was “activated”. The GSPT1 degradation [9] was “degraded”, the weight loss [10] was 1.6-6.8% and the solubility at 2 days (physchem [11]) was 135 µg/mL (≈ 292 µM). It also gave a solubility at 9 days (physchem [11]) of 115 µg/mL (≈ 249 µM), a solubility at 34 days (physchem [11]) of 98 µg/mL (≈ 212 µM) and an IC50 ([12]; read-out: Absolute IC50, GA0087-1st experiment) of 20.3 nM. The IC50 ([12]; read-out: Absolute IC50, GA0087-2nd experiment) was 16.4 nM, the IC50 ([12]; read-out: Relative IC50, GA0087-1st experiment) was 16.3 nM and the IC50 ([12]; read-out: Relative IC50, GA0087-2nd experiment) was 15.2 nM. For the same compound, the “Maximal Inhibition” value ([13]; GA0087-1st experiment) was 90.71%, the “Maximal Inhibition” value ([13]; GA0087-2nd experiment) was 92.41% and the “activity in the GA0087 model” value ([13]; ex vivo 3D assay, 7 days, single agent) was “shows activity”.
